Data on eleven molecules can be found in US7592373B2 (Boehringer Ingelheim International GmbH, priority 2003, dated 2009).

Data set [1] has as its target T1, hMCH-1R (Homo sapiens, UniProt Q99705).
T1 construct: expressed in transfected cells
The experiment in a line: MCH-1 receptor binding test (125I-MCH binding to hMCH-1R transfected cell membranes). The settings on record: membranes of hMCH-1R transfected CHO/Galpha16 cells. As to the method:
After the incubation the reaction is filtered using a cell harvester through 0.5% PEI treated fiberglass filters (GF/B, Unifilter Packard). The membrane-bound radioactivity retained on the filter is then determined after the addition of scintillator substance (Packard Microscint 20) in a measuring device (TopCount of Packard). […] The analysis of the concentration binding curve is carried out on the assumption of one receptor binding site.

Data set [2] deals with rats. The settings on record: cited from earlier work.
The conditions of data set [3]: animals treated with the antagonist; cited from earlier work.

The structures appear in SMILES notation. Structures can show the parent of a compound that is named as a salt.

T1 sequence (Q99705 whole entry): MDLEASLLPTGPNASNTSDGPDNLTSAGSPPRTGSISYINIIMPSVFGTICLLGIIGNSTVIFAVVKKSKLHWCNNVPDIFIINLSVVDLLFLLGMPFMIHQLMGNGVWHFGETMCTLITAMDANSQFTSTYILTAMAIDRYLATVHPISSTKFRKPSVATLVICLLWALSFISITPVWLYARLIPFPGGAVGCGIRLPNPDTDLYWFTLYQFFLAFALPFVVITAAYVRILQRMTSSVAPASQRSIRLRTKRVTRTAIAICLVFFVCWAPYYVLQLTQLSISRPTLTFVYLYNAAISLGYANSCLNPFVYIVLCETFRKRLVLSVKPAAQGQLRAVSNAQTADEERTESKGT

Regarding `CCN(CC)CCOc1ccc(NC(=O)C#Cc2ccc(Cl)cc2Cl)c(Cl)c1` [Example 4.8, 3-(2,4-dichlorophenyl)propynoic acid-[2-chloro-4-(2-diethylaminoethoxy)phenyl]amide], the IC50 – broadly, the midpoint of a concentration-inhibition curve – in data set [1] amounted to 50 nM.

Turning to `COc1ccc(-c2ccc(NC(=O)/C=C/c3ccc(CN4CCCC4)cc3)cc2)cc1` [Example 5.1, (E)-N-(4′-methoxybiphenyl-4-yl)-3-(4-pyrrolidin-1-ylmethylphenyl)acrylamide], the melting point (commonly the temperature, or range, at which the solid turns liquid) lay in the range of 199 to 200 °C. The IC50 in data set [1] stood at 20 nM.

Molecule `CN(C(=O)C#Cc1ccc(CN2CCCC2)cc1)c1ccc(-c2ccc(Cl)cc2)cc1` [Example 1.23, 3-(4-pyrrolidin-1-ylmethylphenyl)propynoic acid-(4′-chlorobiphenyl-4-yl)methylamide] gave a melting point of 161 to 164 °C. Moreover, in data set [1], the IC50 was determined as 7.5 nM.

In the case of `CC1CCN(CCOc2ccc(NC(=O)C#Cc3ccc(C(F)(F)F)cc3Cl)cc2)CC1` (as salt: hydrochloride) [Example 3.45, 3-(2-chloro-4-trifluoromethylphenyl)propynoic acid {4-[2-(4-methylpiperidin-1-yl)ethoxy]phenyl}amide hydrochloride], the melting point was in the range of 240 to 245 °C.

For the molecule `COCCN(C)Cc1ccc(NC(=O)C#Cc2ccc(-c3ccc(Cl)cc3)cc2)cc1` [Example 3.11, 3-(4′-chlorobiphenyl-4-yl)propynoic acid-(4-{[(2-methoxyethyl)methylamino]methyl}phenyl)amide], the melting point lay in the range of 130 to 133 °C.

As to `COCC1=C(C(=O)OC)[C@H](c2ccc(F)c(F)c2)N(C(=O)NCCCN2CCC(c3cccc(NC(C)=O)c3)CC2)C(=O)N1` [SNAP-7941], the “effects in behavioral experiments” value in data set [2] is “anxiolytic and antidepressant effects”. Besides, the “body weight in long term trials” value in data set [3] is recorded as “lose significant amounts of weight”.

Molecule `CCN(CC)CCOc1ccc(NC(=O)C#Cc2ccc(-c3ccc(Cl)cc3)cc2)cc1Cl.Cl` had a melting point of 226 to 233 °C.

On to `O=C(CCc1ccc(CN2CCC[C@@H]2CO)cc1)Nc1ccc(-c2ccc(Cl)cc2)cc1` [Example 6.8, N-(4′-chlorobiphenyl-4-yl)-3-[4-((R)-2-hydroxymethylpyrrolidin-1-ylmethyl)phenyl]propionamide], for which the melting point lay within 156 to 157 °C.

`CN(CCCN)Cc1ccc(CCC(=O)Nc2ccc(-c3ccc(Cl)cc3)cc2)cc1` [Example 6.27, 3-(4-{[(3-aminopropyl)methylamino]methyl}phenyl)-N-(4′-chlorobiphenyl-4-yl)propionamide] yielded a melting point of 165 °C.

Regarding `COc1cc(NC(=O)C#Cc2ccc(C(F)(F)F)cc2Cl)ccc1OCCN(C)CC1CC1` (as salt: hydrochloride) [Example 4.278, 3-(2-chloro-4-trifluoromethylphenyl)propynoic acid-{4-[2-(cyclopropylmethylmethylamino)ethoxy]-3-methoxyphenyl}amide hydrochloride], the melting point lay within 173 to 176 °C.

`O=C(C#Cc1ccc(CCN2CCCC2)cc1)Nc1ccc(-c2ccccc2)cc1` [Example 2.1, 3-[4-(2-pyrrolidin-1-ylethyl)phenyl]propynoic Acid biphenyl-4-ylamide] displayed a melting point of 180 to 189 °C.
